From PubChem BioAssay AID1963431 (Molecular Pharmacology Branch, DTP, NCI, 2024)

System: Rh18 complex spheroid viability, percent test/control
Assay: Anticancer human tumor Rh18 cell line growth inhibition [Asc];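 note: spheroids exposed to compound for 7 days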;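 for viability, T/C: 100% = DMSO vehicle control wells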
Conditions: for IC50: curve of first compound; for viability, T/C: stronger effect = lower value
Summary of the method: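 Complex solid-tumor spheroids incorporating human endothelial and mesenchymal stem cells received single agents or combinations over half-log dilution ranges anchored to clinical Cmax.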

[1] = second compound 0.01 µM, first compound 0.00316 µM
[2] = second compound 0.01 µM, first compound 0.01 µM
[3] = second compound 0.01 µM, first compound 0.0316 µM
[4] = second compound 0.01 µM, first compound 0.1 µM
[5] = second compound 0.01 µM, first compound 0.316 µM
[6] = second compound 0.01 µM, first compound 1 µM
[7] = second compound 0.0316 µM, first compound 0.00316 µM
[8] = second compound 0.0316 µM, first compound 0.01 µM
[9] = second compound 0.0316 µM, first compound 0.0316 µM
[10] = second compound 0.0316 µM, first compound 0.1 µM
[11] = second compound 0.0316 µM, first compound 0.316 µM
[12] = second compound 0.0316 µM, first compound 1 µM
[13] = second compound 0.1 µM, first compound 0.00316 µM
[14] = second compound 0.1 µM, first compound 0.01 µM
[15] = second compound 0.1 µM, first compound 0.0316 µM
[16] = second compound 0.1 µM, first compound 0.1 µM
[17] = second compound 0.1 µM, first compound 0.316 µM
[18] = second compound 0.1 µM, first compound 1 µM
[19] = second compound 0.316 µM, first compound 0.00316 µM
[20] = second compound 0.316 µM, first compound 0.01 µM
[21] = second compound 0.316 µM, first compound 0.0316 µM
[22] = second compound 0.316 µM, first compound 0.1 µM
[23] = second compound 0.316 µM, first compound 0.316 µM
[24] = second compound 0.316 µM, first compound 1 µM
[25] = second compound 1 µM, first compound 0.00316 µM
[26] = second compound 1 µM, first compound 0.01 µM
[27] = second compound 1 µM, first compound 0.0316 µM
[28] = second compound 1 µM, first compound 0.1 µM
[29] = second compound 1 µM, first compound 0.316 µM
[30] = second compound 1 µM, first compound 1 µM

SMILES	IC50 (second compound 0.01 µM) [nM]	IC50 (second compound 0.0316 µM) [nM]	IC50 (second compound 0.1 µM) [nM]	IC50 (second compound 0.316 µM) [nM]	IC50 (second compound 1 µM) [nM]	viability, T/C [1] [%]	viability, T/C [2] [%]	viability, T/C [3] [%]	viability, T/C [4] [%]	viability, T/C [5] [%]	viability, T/C [6] [%]	viability, T/C [7] [%]	viability, T/C [9] [%]	viability, T/C [10] [%]	viability, T/C [15] [%]	viability, T/C [16] [%]	viability, T/C [21] [%]	viability, T/C [22] [%]	viability, T/C [27] [%]	viability, T/C [28] [%]	further results
CCN1CCN(Cc2ccc(Nc3ncc(F)c(-c4cc(F)c5nc(C)n(C(C)C)c5c4)n3)nc2)CC1 + CNC(C)C(=O)NC1CN(S(=O)(=O)c2cccc(S(=O)(=O)N3CCC4CCC(C(=O)NC(c5ccccc5)c5ccccc5)N4C(=O)C(NC(=O)C(C)NC)C3)c2)CCC2CCC(C(=O)NC(c3ccccc3)c3ccccc3)N2C1=O	< 3.16	< 3.16	< 3.16	< 3.16	< 3.16	57	50	39.2	40.6	58.6	86.7	47.7	39.6	38	35.2	40.1	38.3	35.7	30.6	29.5	viability, T/C [8]: 46.1%; viability, T/C [11]: 48.7%; viability, T/C [12]: 90.9%; viability, T/C [13]: 47.1%; viability, T/C [14]: 47.5%; viability, T/C [17]: 48.3%; viability, T/C [18]: 53.8%; viability, T/C [19]: 59.2%; viability, T/C [20]: 47.2%; viability, T/C [23]: 44.4%; viability, T/C [24]: 67.4%; viability, T/C [25]: 34.7%; viability, T/C [26]: 30%; viability, T/C [29]: 38.7%; viability, T/C [30]: 60.7%
Cn1ncnc1[C@H]1c2n[nH]c(=O)c3cc(F)cc(c23)N[C@@H]1c1ccc(F)cc1 + CNC(C)C(=O)NC1CN(S(=O)(=O)c2cccc(S(=O)(=O)N3CCC4CCC(C(=O)NC(c5ccccc5)c5ccccc5)N4C(=O)C(NC(=O)C(C)NC)C3)c2)CCC2CCC(C(=O)NC(c3ccccc3)c3ccccc3)N2C1=O	3.74	1.53	< 0.316	0.406	0.588	53.5	26.7	18.4	19.2			36.5	18.7	21.3	14.8	15	12.4	20	18.4	14.2	viability, T/C (second compound 0.01 µM, first compound 0.000316 µM): 54.4%; viability, T/C (second compound 0.01 µM, first compound 0.001 µM): 64.3%; viability, T/C (second compound 0.0316 µM, first compound 0.000316 µM): 62.7%; viability, T/C (second compound 0.0316 µM, first compound 0.001 µM): 58.1%; viability, T/C [8]: 23.1%; viability, T/C (second compound 0.1 µM, first compound 0.000316 µM): 39.4%; viability, T/C (second compound 0.1 µM, first compound 0.001 µM): 47.7%; viability, T/C [13]: 34.6%; viability, T/C [14]: 18%; viability, T/C (second compound 0.316 µM, first compound 0.000316 µM): 55.7%; viability, T/C (second compound 0.316 µM, first compound 0.001 µM): 29.6%; viability, T/C [19]: 25.5%; viability, T/C [20]: 19.6%; viability, T/C (second compound 1 µM, first compound 0.000316 µM): 49.1%; viability, T/C (second compound 1 µM, first compound 0.001 µM): 51.2%; viability, T/C [25]: 42.9%; viability, T/C [26]: 26.1%
O=C(c1cc(Cc2n[nH]c(=O)c3ccccc23)ccc1F)N1CCN(C(=O)C2CC2)CC1 + CNC(C)C(=O)NC1CN(S(=O)(=O)c2cccc(S(=O)(=O)N3CCC4CCC(C(=O)NC(c5ccccc5)c5ccccc5)N4C(=O)C(NC(=O)C(C)NC)C3)c2)CCC2CCC(C(=O)NC(c3ccccc3)c3ccccc3)N2C1=O	404	< 31.6	< 31.6	< 31.6	< 31.6			60.7	48.4	49.6	39.4		45.8	49.9	42	40.2	40	38.9	32.2	36.8	viability, T/C (second compound 0.01 µM, first compound 3.16 µM): 13.2%; viability, T/C (second compound 0.01 µM, first compound 10 µM): 16.7%; viability, T/C [11]: 46.4%; viability, T/C [12]: 34.5%; viability, T/C (second compound 0.0316 µM, first compound 3.16 µM): 16.7%; viability, T/C (second compound 0.0316 µM, first compound 10 µM): 18.1%; viability, T/C [17]: 26.7%; viability, T/C [18]: 27.8%; viability, T/C (second compound 0.1 µM, first compound 3.16 µM): 11.1%; viability, T/C (second compound 0.1 µM, first compound 10 µM): 12.8%; viability, T/C [23]: 36.8%; viability, T/C [24]: 26.6%; viability, T/C (second compound 0.316 µM, first compound 3.16 µM): 11.3%; viability, T/C (second compound 0.316 µM, first compound 10 µM): 12.2%; viability, T/C [29]: 32.5%; viability, T/C [30]: 26.1%; viability, T/C (second compound 1 µM, first compound 3.16 µM): 10.8%; viability, T/C (second compound 1 µM, first compound 10 µM): 10.9%
O=C(c1ccc(F)c(F)c1Nc1ccc(I)cc1F)N1CC(O)([C@@H]2CCCCN2)C1 + CNC(C)C(=O)NC1CN(S(=O)(=O)c2cccc(S(=O)(=O)N3CCC4CCC(C(=O)NC(c5ccccc5)c5ccccc5)N4C(=O)C(NC(=O)C(C)NC)C3)c2)CCC2CCC(C(=O)NC(c3ccccc3)c3ccccc3)N2C1=O	61.8	3.16	< 3.16	< 3.16	< 3.16	53.6	59.4	48.5	45.2	41.8	14.8	50.4	43.6	47.7	36.1	43.4	38.2	42.3	37.3	42.9	viability, T/C [8]: 46.1%; viability, T/C [11]: 52.1%; viability, T/C [12]: 20.4%; viability, T/C [13]: 39.7%; viability, T/C [14]: 40.8%; viability, T/C [17]: 37.9%; viability, T/C [18]: 8.57%; viability, T/C [19]: 43.8%; viability, T/C [20]: 47%; viability, T/C [23]: 41.6%; viability, T/C [24]: 13.5%; viability, T/C [25]: 41.5%; viability, T/C [26]: 37.6%; viability, T/C [29]: 28.9%; viability, T/C [30]: 11.6%
